In brackets after ≈: the same amount, converted by molar mass. Several values for one entry are separate records, joined by “and”; a condition that tells them apart may be missing. Identical values can stand only once. Where a SMILES comes first, the peptide text is derived from it. Where no end group is shown, it is not given here. [ ]: non-standard residue; d: D form. 2Nal = N[C@@H](Cc1ccc2ccccc2c1)C(=O)O
Legend:
[1] = tested on: Pseudomonas aeruginosa (PA); test: Broth microdilution anti-bacterial assay (CLSI), Pseudomonas aeruginosa; assay type: cell-based, Pseudomonas aeruginosa (ATCC 14213)
Procedure: (§1) To evaluate their anti-bacterial potency, broth microdilution method as per the CLSI guidelines 1 was used. […] The anti-bacterial potency of the tested agents is quantified using minimum inhibitory concentration (MIC) and minimum bactericidal concentration (MBC). […] To obtain the MBC data, 1X, 2X and 4× MIC of the peptide variants were plated to obtain the number of viable colonies compared to the original inoculum.
(§2) Pseudomonas aeruginosa (ATCC 14213, PA), and methicillin resistant Staphylococcus aureus (BAA1717-USA 300, SA) were obtained from The American Type Culture Collection (ATCC).
(§3) Examination of the potency of modified short peptides against PA and SA strains was performed by using the broth microdilution protocol from the Clinical and Laboratory Standards Institute (CLSI) guidelines (CLSI 2012) as described. Briefly, five freshly plated bacteria colonies were grown in cation adjusted MH2 broth (BD Biosciences) in a shaker incubator at 37° C., 220 RPM. Cells were grown to an optical density (OD600) of ~0.2 measured using a Microplate Spectrophotometer (Molecular Devices Spectra Max Plus). 100 μL of microbial culture containing ~5×10^5 CFU/mL of bacteria in the respective broths were introduced into each well containing 100 μL of peptides and incubated overnight at 37° C. Next, to check the bactericidal effects, 100 μL from each well was transferred and spread on sterile MH2 agar plates. The plates were incubated overnight at 37° C. and the number of colonies forming units (CFU) were calculated the following day. Readings of bacteria grown in media without any treatments were normalized to 100% as media control. For the mixed infection study, three freshly plated bacteria colonies each from PA, SA and ST plates were grown together in cation adjusted MH2 broth and proceeded as described above.

[2] = tested on: Staphylococcus aureus (SA); test: Broth microdilution anti-bacterial assay (CLSI), Staphylococcus aureus; assay type: cell-based
Procedure: as §1, §2, §3

[3] = tested on: Pseudomonas aeruginosa (PA); test: Combination of peptide with antibiotics against PA; assay type: cell-based; conditions: with colistin
Source text: In view of the results above, the peptide variants as described herein show synergistic anti-bacterial effects when used in combination with antibiotics.
In some examples, the methods described herein further comprises administering an antibiotic agent to the subject.

[4] = tested on: mixed bacterial infection (PA, SA and ST); test: Broth microdilution, mixed bacterial infection; assay type: cell-based; conditions: for MBC: mixed infection
Procedure: Chronic wounds mostly present mixed infections where numerous pathogens colonize together.
as §3

[5] = tested on: Pseudomonas aeruginosa (PA); test: Antimicrobial resistance evolution assay, PA; assay type: cell-based; conditions: for development of antimicrobial resistance, PA: serial passaging, 28 days, resistance = >4-fold MIC change
Source text: The development of antimicrobial resistance is defined by greater than a 4-fold change to their initial minimum inhibitory concentration (MIC) at day 1. Exemplary bacteria strains Pseudomonas aeruginosa (PA) and Staphylococcus aureus (SA) are subjected to continuous daily serial passaging over several days, with treatment of exemplary variant peptides E1AM2 (SEQ ID NO: 2) and Q19L (SEQ ID NO: […]) at subinhibitory concentrations. […] The treatments were discontinued when the MIC increased by more than four-fold from the initial MIC or when MIC reached >100 μM.
Briefly, sequential passaging of PA, and SA cells was done with sub-inhibitory concentrations of antibiotics or E1AM2 up to 4 weeks. The cells grown in those concentrations of antibiotics or peptides were diluted to A600 nm (OD600) of ~0.2 and serially passaged daily with the same concentrations at 37° C. with agitation at 24 h intervals.

[6] = tested on: Pseudomonas aeruginosa PA BAA-2110; test: Broth microdilution, PA BAA-2110 (lung infection in cystic fibrosis); assay type: cell-based, Pseudomonas aeruginosa (BAA-2110); conditions: Pseudomonas aeruginosa, BAA2110
Procedure: (§4) Bacteria strains involved in lung infection in cystic fibrosis patients (PA-BAA 2110) and ear-eye infections (PA-CRM 9027) are treated with exemplary variant peptides, such as E1AM2 and Q19L.
as §3

[7] = tested on: Pseudomonas aeruginosa PA CRM-9027; test: Broth microdilution, PA CRM-9027 (ear-eye infections); assay type: cell-based, Pseudomonas aeruginosa (CRM-9027); conditions: Pseudomonas aeruginosa, PACRM9027
Procedure: as §4, §3

bacteria = test: Comparison of wild-type peptide E1A to V8LQ19L (Table 14)
Source text: Active peptide sequences based on ENO3 exerting significant bactericidal antibiofilm properties, and relevant to chronic wound healing are previously disclosed. The previously disclosed antimicrobial peptides (AMPs) are longer (>22-residues) in length, which would be more costly in production.

[8] = PA, overnight, 37° C., ≥99% inhibition
[9] = SA, overnight, 37° C., ≥99% inhibition

CC(C)C[C@H](NC(=O)[C@H](C)NC(=O)[C@H](CC(C)C)NC(=O)[C@H](CCCCN)NC(=O)[C@H](CC(C)C)NC(=O)[C@H](C)NC(=O)[C@H](CCCCN)NC(=O)[C@H](CCCCN)NC(=O)[C@H](CO)NC(=O)[C@H](CC(C)C)NC(=O)[C@H](CCCCN)NC(=O)[C@H](CC(C)C)NC(=O)[C@H](Cc1ccc2ccccc2c1)NC(=O)[C@H](CCCCN)NC(=O)[C@H](CCCCN)NC(=O)[C@H](CC(C)C)NC(=O)[C@H](CC(C)C)NC(=O)[C@H](CCCCN)NC(=O)[C@@H](N)CCCCN)C(N)=O [E1AM2 W72Nal V8L Q19L C-2-NH2] (H-KKLLKK[2Nal]LKLSKKALKLAL-NH2)
MIC [1, 8]: 1.56 µM (≈ 3.53 µg/mL)
MBC ([1]; PA, ≥99% killing): 1.56 µM (≈ 3.53 µg/mL)
MIC [2, 9]: 1.56 µM (≈ 3.53 µg/mL)
MBC ([2]; SA, ≥99% killing): 1.56 µM (≈ 3.53 µg/mL)
MBC in combination with colistin [3]: reduced minimum bactericidal concentration (MBC)
MIC in combination with colistin [3]: reduced minimum inhibitory concentration (MIC)

O=C(O)c1cn(C2CC2)c2cc(N3CCNCC3)c(F)cc2c1=O [Ciprofloxacin, 1-cyclopropyl-6-fluoro-4-oxo-7-(piperazin-1-yl)-quinoline-3-carboxylic acid]
MBC [4]: 25 µM (≈ 8.28 µg/mL)
development of antimicrobial resistance, PA [5]: developed resistance

CN[C@@H]1[C@@H](O)C(O[C@@H]2[C@@H](O)[C@H](O[C@H]3O[C@H]([C@@H](C)NC)CC[C@H]3N)[C@@H](N)C[C@H]2N)OC[C@]1(C)O (stereo partly drawn) [Gentamicin, (3R,4R,5R)-2-{[(1S,2S,3R,4S,6R)-4,6-diamino-3-{[(2R,3R,6S)-3-amino-6-[(1R)-1-(methylamino)ethyl]oxan-2-yl]oxy}-2-hydroxycyclohexyl]oxy}-5-methyl-4-(methylamino) oxane-3,5-diol]
MBC ([1]; Pseudomonas aeruginosa): 6.25 µM (≈ 2.99 µg/mL)
MIC ([1]; Pseudomonas aeruginosa): 3.12 µM (≈ 1.49 µg/mL)
MBC ([2]; Staphylococcus aureus): 3.25 µM (≈ 1.55 µg/mL)
MIC ([2]; Staphylococcus aureus): 1.56 µM (≈ 0.745 µg/mL)
MIC [4]: 3.12 µM (≈ 1.49 µg/mL)
MBC [4]: 6.25 µM and 6.26 µM
MBC [6]: 25 µM (≈ 11.9 µg/mL)
MIC [6]: 25 µM (≈ 11.9 µg/mL)
MBC [7]: 12.5 µM (≈ 5.97 µg/mL)
MIC [7]: 6.25 µM (≈ 2.99 µg/mL)
AMR prevention / resistance induction ([5]; Table 15: in PA and SA, bacteria not named): induced resistance development in bacteria
development of antimicrobial resistance, PA [5]: developed resistance

KVNQIGSVTESIQACKLAQSN [E1A, reference compound]
Cationicity (bacteria): Non-cationic (cannot disrupt
Mechanism of killing bacteria (bacteria): Unknown/non-membrane
Killing efficacy (in words) (bacteria; >99% inhibition or killing, even at 500 μM): Does not achieve >99%

CC(C)C[C@@H](NC(=O)[C@@H](C)NC(=O)[C@@H](CC(C)C)NC(=O)[C@@H](CCCCN)NC(=O)[C@@H](CC(C)C)NC(=O)[C@@H](C)NC(=O)[C@@H](CCCCN)NC(=O)[C@@H](CCCCN)NC(=O)[C@@H](CO)NC(=O)[C@@H](CC(C)C)NC(=O)[C@@H](CCCCN)NC(=O)[C@@H](CC(C)C)NC(=O)[C@@H](Cc1c[nH]c2ccccc12)NC(=O)[C@@H](CCCCN)NC(=O)[C@@H](CCCCN)NC(=O)[C@@H](CC(C)C)NC(=O)[C@@H](CC(C)C)NC(=O)[C@@H](CCCCN)NC(=O)[C@H](N)CCCCN)C(N)=O [E1AM2 D-V8L Q19L C-2-NH2] (H-[dK][dK][dL][dL][dK][dK][dW][dL][dK][dL][dS][dK][dK][dA][dL][dK][dL][dA][dL]-NH2)
MIC [1, 8]: 1.56 µM (≈ 3.51 µg/mL)
MBC ([1]; PA, ≥99% killing): 1.56 µM (≈ 3.51 µg/mL)
MIC [2, 9]: 1.56 µM (≈ 3.51 µg/mL)
MBC ([2]; SA, ≥99% killing): 1.56 µM (≈ 3.51 µg/mL)
MBC in combination with colistin [3]: reduced minimum bactericidal concentration (MBC)
MIC in combination with colistin [3]: reduced minimum inhibitory concentration (MIC)

CO/N=C(\C(=O)N[C@@H]1C(=O)N2C(C(=O)[O-])=C(C[N+]3(C)CCCC3)CS[C@H]12)c1csc(N)n1 [Cefepime]
MBC ([1]; Pseudomonas aeruginosa): 25 µM (≈ 12 µg/mL)
MIC ([1]; Pseudomonas aeruginosa): 12.5 µM (≈ 6.01 µg/mL)
MBC ([2]; Staphylococcus aureus): 25 µM (≈ 12 µg/mL)
MIC ([2]; Staphylococcus aureus): 12.5 µM (≈ 6.01 µg/mL)
MIC [4]: 12.5 µM (≈ 6.01 µg/mL)
MBC [4]: 12.5 µM (≈ 6.01 µg/mL)
MBC [6]: 25 µM (≈ 12 µg/mL)
MIC [6]: 12.5 µM (≈ 6.01 µg/mL)
MBC [7]: 1.56 µM (≈ 0.75 µg/mL)
MIC [7]: 1.56 µM (≈ 0.75 µg/mL)
development of antimicrobial resistance, PA [5]: developed resistance

Source: patent publication US20260327263A1, “Anti-Bacterial Peptides” (priority 2023, published 2026)
